Test results reported in patent EP4810052A2, “HCRHR2 SELECTIVE POLYPEPTIDES” (Gubra A/S, priority 2023, dated 2026).
Starred links: 1 amine or outer side, 2 acyl side, 3 side chain; linkers in the order of their positions; H or OH if unused. Non-standard residues stand in square brackets, D forms with d. Residues, ends and D or L forms follow the SMILES beside them. Groups on a side chain read outwards from the residue. *: point of attachment. C20 diacid = O=C(O)CCCCCCCCCCCCCCCCCCC(=O)*; γGlu = O=C(O)[C@H](CCC(=O)[*:2])N[*:1]; NMeI = CC[C@H](C)[C@H](NC)C(=O)O; Nle = CCCC[C@H](N)C(=O)O; AEEA = NCCOCCOCC(=O)O; Aib = CC(C)(N)C(=O)O

Experiments:
[1] = Telemetry in conscious healthy pigs; type: in vivo; settings: study A
Description: PK/PD/safety properties of SEQ ID NO: 3 were evaluated in freely moving conscious healthy pigs by […].
In study part A, the effects of an ascending dose regime of SEQ ID NO: 3, (0.03, 0.1, 0.3 and 1.0 mg/kg) was compared to placebo. Primary endpoints were blood pressure, heart rate and ECG measurements.
In study part B, the effect of repeated dosing (once weekly, for 4 weeks) with a single dose of SEQ ID NO: 3 (0.3 mg/kg) was compared to placebo. Primary endpoints were blood pressure, heart rate and ECG measurements.

[2] = Telemetry in Spontaneously Hypertensive Rats; type: in vivo; settings: for Heart rate / Mean arterial pressure: rats
Description: Blood pressure and heart rate were monitored in freely moving conscious animals by […] (DSI Data Science International, MN, USA). Female adult hypertensive rats (SHR) were implanted with transmitters. After shaving the abdominal wall, a midline abdominal incision was made, and the fluid-filled sensor catheter was inserted upstream into the exposed descending aorta between the iliac bifurcation and the renal arteries. According to the DSI guidelines the tip of the telemetric catheter was located just caudal to the renal arteries and secured by tissue adhesive. The transmitter body was affixed to the inner peritoneal - 3 - wall before closure of abdomen. A two-layer closure of the abdominal incision was used, with individual suturing of the peritoneum and the muscle wall followed by closure of the outer skin. Surgery was performed under aseptic conditions. For postsurgical protection against infections and pain a single dosage of an antibiotic (Ursocyclin 10% pro inj., Serumwerk, s.c.) and analgesic were injected (Rimadyl®, 4 mg/kg s.c., Pfizer, Germany). All animals were single-housed at 22-24°C ambient temperature and maintained on a 12/12 h dark-light cycle with free access to standard laboratory rat chow and water ad libitum.
All animals were treated with daily s.c. doses of vehicle or SEQ ID NO: 3, (10 or 30 nmol/kg) for 7 days (1 ml/kg). Drug administration took place at 9.00 a.m. (= 0 hours). For analysis, data were grouped to provide half-hourly averages.
For statistical analysis, 24 hours means were calculated starting from time of dosing. All data were evaluated using a 2-way ANOVA with Dunnett's test.

[3] = Acute effects on hemodynamics in anesthetized pigs; type: in vivo, Göttingen minipigs; settings: anesthetized minipigs, ascending doses
Description: Göttingen minipigs were anesthetized and instrumented to continuous monitor hemodynamics during baseline measurement (0.5h), vehicle treatment (0.5h) and ascending doses of SEQ ID NO: 215 each 0.5 hours (10, 30, 100 and 300 µg/kg/min) and compared to a similar setup using Dobutamine (1, 3, 10 and 20 µg/kg/min) and vehicle (NaCl).

[4] = molecular target: T1, rCRHR1 (Rattus norvegicus, UniProt P35353); experiment: cAMP potency, transiently transfected CHO-K1 cells, rCRHR1; type: cell-based; settings: transiently transfected CHO-K1, average n=3; read-out: Transient cell system EC50 (nM) rCRH R1
T1 construct: DYK (FLAG); host or cells: CHO-K1, transiently transfected
T1 sequence (P35353 24-415): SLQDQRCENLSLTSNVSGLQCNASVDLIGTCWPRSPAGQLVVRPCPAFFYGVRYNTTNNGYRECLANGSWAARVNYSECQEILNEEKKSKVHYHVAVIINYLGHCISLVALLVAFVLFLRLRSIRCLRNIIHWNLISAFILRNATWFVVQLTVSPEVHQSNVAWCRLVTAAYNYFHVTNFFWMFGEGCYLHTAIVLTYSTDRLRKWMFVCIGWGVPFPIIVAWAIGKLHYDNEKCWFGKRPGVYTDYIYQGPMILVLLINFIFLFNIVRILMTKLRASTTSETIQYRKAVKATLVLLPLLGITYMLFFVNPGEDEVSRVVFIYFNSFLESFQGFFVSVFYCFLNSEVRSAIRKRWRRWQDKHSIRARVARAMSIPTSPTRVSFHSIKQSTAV
Description: Selected peptides were tested for potency on different species (mouse, rat, porcine) using transiently transfected CHO-K1 cells using the general procedure.

[5] = SHR rats, daily s.c. 10 or 30 nmol/kg for 7 days

What does the source list for `CC[C@H](C)[C@H](N)C(=O)N[C@H](C(=O)N[C@@H](CC(C)C)C(=O)N[C@@H](CO)C(=O)N[C@@H](CC(C)C)C(=O)N[C@@H](CC(=O)O)C(=O)N[C@H](C(=O)N1CCC[C@H]1C(=O)N[C@H](C(=O)NCC(=O)N[C@@H](CC(C)C)C(=O)N[C@@H](CC(C)C)C(=O)N[C@@H](CCC(N)=O)C(=O)N[C@H](C(=O)N[C@@H](CC(C)C)C(=O)N[C@@H](CC(C)C)C(=O)N[C@@H](CCC(=O)O)C(=O)N[C@@H](CCC(N)=O)C(=O)N[C@@H](C)C(=O)N[C@@H](CCCNC(=N)N)C(=O)N[C@@H](C)C(=O)N[C@@H](CCCNC(=N)N)C(=O)N[C@@H](C)C(=O)N[C@@H](C)C(=O)N[C@@H](CCCNC(=N)N)C(=O)N[C@@H](CCC(=O)O)C(=O)N[C@@H](CCC(N)=O)C(=O)N[C@@H](C)C(=O)N[C@@H](CCCCNC(=O)COCCOCCNC(=O)COCCOCCNC(=O)CC[C@H](NC(=O)CC[C@H](NC(=O)CCCCCCCCCCCCCCCCCCC(=O)O)C(=O)O)C(=O)O)C(=O)N[C@H](C(=O)N[C@@H](CC(N)=O)C(=O)N[C@@H](C)C(=O)N[C@@H](CCC(=O)O)C(=O)N[C@H](C(=O)N[C@@H](CC(C)C)C(=O)N[C@@H](C)C(=O)N[C@@H](CCC(=O)O)C(=O)N[C@H](C(N)=O)C(C)C)[C@@H](C)CC)[C@@H](C)O)[C@@H](C)CC)[C@@H](C)CC)C(C)C)C(C)C` [SEQ ID NO: 3] (H-IVLSLDVPIGLLQILLEQARARAAREQAK([AEEA-AEEA-γGlu-γGlu-C20 diacid])TNAEILAEV-NH2)?
Heart rate [1]: remained unaffected; mean arterial blood pressure [1]: remained unaffected; relaxation of the left ventricle [1]: not affected; systemic or cardiac hemodynamics (LV end diastolic pressure, time constant of relaxation, baroreceptor sensitivity, heart rate variability) [1]: No relevant findings; PR-Interval ([1]; ECG): slight decrease; QT-Interval ([1]; ECG): unaffected; inotropic effects (contractility) ([1]; ascending s.c. doses 0.03-1.0 mg/kg): long-lasting positive ionotropic effects; HR [2, 5]: transient and dose-dependent increase; blood pressure [2, 5]: transient and dose-dependent decrease; Heart rate ([2]; 10 nmol/kg, Day 0): 345.67 ± 5.3 BPM; Mean arterial pressure ([2]; 10 nmol/kg, Day 0): 130.83 ± 2.1 mmHg; Heart rate ([2]; 10 nmol/kg, Day 1): 330.67 ± 6.2 BPM; Mean arterial pressure ([2]; 10 nmol/kg, Day 1): 130.33 ± 1.8 mmHg; Heart rate ([2]; 10 nmol/kg, Day 2): 324.00 ± 5.2 BPM; Mean arterial pressure ([2]; 10 nmol/kg, Day 2): 136.17 ± 2.0 mmHg; Heart rate ([2]; 10 nmol/kg, Day 3): 324.00 ± 5.2 BPM; Mean arterial pressure ([2]; 10 nmol/kg, Day 3): 139.17 ± 2.3 mmHg; Heart rate ([2]; 10 nmol/kg, Day 4): 323.33 ± 7.4 BPM; Mean arterial pressure ([2]; 10 nmol/kg, Day 4): 137.67 ± 2.4 mmHg; Heart rate ([2]; 10 nmol/kg, Day 5): 320.50 ± 7.0 BPM; Mean arterial pressure ([2]; 10 nmol/kg, Day 5): 139.00 ± 2.9 mmHg; Heart rate ([2]; 10 nmol/kg, Day 6): 315.67 ± 7.2 BPM; Mean arterial pressure ([2]; 10 nmol/kg, Day 6): 138.50 ± 2.4 mmHg; Heart rate ([2]; 10 nmol/kg, Day -1): 314.50 ± 4.8 BPM; Mean arterial pressure ([2]; 10 nmol/kg, Day -1): 145.33 ± 3.1 mmHg; Heart rate ([2]; 30 nmol/kg, Day 0): 364.50 ± 5.4 BPM; Mean arterial pressure ([2]; 30 nmol/kg, Day 0): 126.25 ± 2.5 mmHg; Heart rate ([2]; 30 nmol/kg, Day 1): 334.00 ± 4.8 BPM; Mean arterial pressure ([2]; 30 nmol/kg, Day 1): 130.00 ± 2.4 mmHg; Heart rate ([2]; 30 nmol/kg, Day 2): 327.50 ± 2.7 BPM; Mean arterial pressure ([2]; 30 nmol/kg, Day 2): 141.00 ± 3.1 mmHg; Heart rate ([2]; 30 nmol/kg, Day 3): 325.88 ± 4.2 BPM; Mean arterial pressure ([2]; 30 nmol/kg, Day 3): 142.50 ± 2.7 mmHg; Heart rate ([2]; 30 nmol/kg, Day 4): 325.38 ± 6.4 BPM; Mean arterial pressure ([2]; 30 nmol/kg, Day 4): 141.00 ± 3.1 mmHg; Heart rate ([2]; 30 nmol/kg, Day 5): 323.50 ± 5.5 BPM; Mean arterial pressure ([2]; 30 nmol/kg, Day 5): 141.75 ± 2.6 mmHg; Heart rate ([2]; 30 nmol/kg, Day 6): 328.88 ± 5.8 BPM; Mean arterial pressure ([2]; 30 nmol/kg, Day 6): 141.75 ± 2.7 mmHg; Heart rate ([2]; 30 nmol/kg, Day -1): 322.38 ± 5.9 BPM; Mean arterial pressure ([2]; 30 nmol/kg, Day -1): 148.88 ± 3.1 mmHg

For `CCCC[C@H](NC(=O)[C@@H](NC(=O)[C@H](CCC(=O)O)NC(=O)C(C)(C)NC(=O)[C@H](CC(N)=O)NC(=O)[C@@H](NC(=O)[C@H](CCCCNC(=O)COCCOCCNC(=O)COCCOCCNC(=O)CC[C@H](NC(=O)CC[C@H](NC(=O)CCCCCCCCCCCCCCCCCCC(=O)O)C(=O)O)C(=O)O)NC(=O)[C@H](C)NC(=O)[C@H](CCC(N)=O)NC(=O)[C@H](CCC(=O)O)NC(=O)[C@H](CCCNC(=N)N)NC(=O)[C@H](C)NC(=O)[C@H](C)NC(=O)[C@H](CCCNC(=N)N)NC(=O)[C@H](C)NC(=O)[C@H](CCCNC(=N)N)NC(=O)[C@H](C)NC(=O)[C@H](CCC(N)=O)NC(=O)[C@H](CO)NC(=O)[C@H](CC(C)C)NC(=O)[C@H](CC(C)C)NC(=O)[C@@H](NC(=O)[C@H](CCC(N)=O)NC(=O)[C@H](CC(C)C)NC(=O)[C@H](CC(C)C)NC(=O)CNC(=O)[C@@H](NC(=O)[C@@H]1CCCN1C(=O)[C@@H](NC(=O)[C@H](CC(=O)O)NC(=O)[C@H](CC(C)C)NC(=O)[C@H](CO)NC(=O)[C@H](CC(C)C)NC(=O)[C@@H](NC(=O)[C@@H](NC)[C@@H](C)CC)C(C)C)C(C)C)[C@@H](C)CC)[C@@H](C)CC)[C@@H](C)O)[C@@H](C)CC)C(=O)N[C@@H](C)C(=O)N[C@@H](CCC(=O)O)C(=O)N[C@H](C(N)=O)C(C)C` [SEQ ID NO: 215] (H-[NMeI]VLSLDVPIGLLQILLSQARARAAREQAK([AEEA-AEEA-γGlu-γGlu-C20 diacid])TN[Aib]EI[Nle]AEV-NH2), which “inotropic effects (contractility)” value ([3]; Fig. 11A) is on record?
Its value is “positive inotropic effects”.

And the coronary blood flow ([3]; Fig. 11B)?
Its coronary blood flow is “increasing”.

What about the “O2 consumption (rate pressure product)” value ([3]; Figs. 11C and 11D) of the same compound?
Its value is “increasing”.

With `CCCC[C@H](NC(=O)[C@@H](NC(=O)[C@H](CCC(=O)O)NC(=O)[C@H](C)NC(=O)[C@H](CC(N)=O)NC(=O)C(C)(C)NC(=O)[C@H](CCCCNC(=O)COCCOCCNC(=O)COCCOCCNC(=O)CC[C@H](NC(=O)CC[C@H](NC(=O)CCCCCCCCCCCCCCCCCCC(=O)O)C(=O)O)C(=O)O)NC(=O)[C@H](C)NC(=O)[C@H](CCC(N)=O)NC(=O)[C@H](CCC(=O)O)NC(=O)[C@H](CCCNC(=N)N)NC(=O)[C@H](C)NC(=O)[C@H](C)NC(=O)[C@H](CCCNC(=N)N)NC(=O)[C@H](C)NC(=O)[C@H](CCCNC(=N)N)NC(=O)[C@H](C)NC(=O)[C@H](CCC(N)=O)NC(=O)[C@H](CO)NC(=O)[C@H](CC(C)C)NC(=O)[C@H](CC(C)C)NC(=O)[C@@H](NC(=O)[C@H](CCC(N)=O)NC(=O)[C@H](CC(C)C)NC(=O)[C@H](CC(C)C)NC(=O)CNC(=O)[C@@H](NC(=O)[C@@H]1CCCN1C(=O)[C@@H](NC(=O)[C@H](CC(=O)O)NC(=O)[C@H](CC(C)C)NC(=O)[C@H](CO)NC(=O)[C@H](CC(C)C)NC(=O)[C@@H](NC(=O)[C@@H]1CCCN1)C(C)C)C(C)C)[C@@H](C)CC)[C@@H](C)CC)[C@@H](C)CC)C(=O)N[C@@H](C)C(=O)N[C@@H](CCC(=O)O)C(=O)N[C@H](C(N)=O)C(C)C` [SEQ ID NO: 238] (H-PVLSLDVPIGLLQILLSQARARAAREQAK([AEEA-AEEA-γGlu-γGlu-C20 diacid])[Aib]NAEI[Nle]AEV-NH2) as the compound, how does the EC50 [4] read?
Its EC50 is greater than 1000 nM.
